Assays:
[1] = biological target: T1, human RXFP3 (Homo sapiens, UniProt Q9NSD7); test: Receptor binding assay, NanoLuc-conjugated R3/I5 tracer competition; settings: compared with R3/I5
T1 construct: expressed in transfected cells; host or cells: HEK293T
T1 sequence (Q9NSD7 1-469): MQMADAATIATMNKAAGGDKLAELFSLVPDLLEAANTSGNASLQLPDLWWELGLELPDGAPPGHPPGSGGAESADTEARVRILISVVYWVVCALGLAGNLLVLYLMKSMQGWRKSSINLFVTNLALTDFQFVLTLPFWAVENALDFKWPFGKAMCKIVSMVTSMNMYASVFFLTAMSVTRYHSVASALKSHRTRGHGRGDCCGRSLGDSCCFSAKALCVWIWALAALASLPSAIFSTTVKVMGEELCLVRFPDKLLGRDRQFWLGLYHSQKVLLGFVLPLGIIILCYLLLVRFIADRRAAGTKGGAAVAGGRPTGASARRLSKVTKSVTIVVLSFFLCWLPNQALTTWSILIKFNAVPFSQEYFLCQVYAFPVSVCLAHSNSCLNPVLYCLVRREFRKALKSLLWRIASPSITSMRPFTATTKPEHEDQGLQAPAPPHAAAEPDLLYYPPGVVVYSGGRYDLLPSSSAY
Experimental: (§1) Specific binding data are expressed as means ± SE (n = 3) and fitted to sigmoidal curves using SigmaPlot 10.0 software.
(§2) Briefly, HEK293T cells were transiently transfected with an expression construct of human RXFP3 or human RXFP4. On the next day, transfected cells were trypsinised, seeded into 96-well plates, and continuously cultured for 24–36 h to ~100% confluence. […] After incubation at 21 °C for 2 h, binding solution was removed and cells were washed twice with ice-cold phosphate-buffered saline (200 μl/well for each wash). Thereafter, cells were lysed by lysis solution (100 μl/well, Promega, Madison, WI, USA) and cell lysates were transferred to a white opaque 96-well plate (50 μl/well). After mixing with freshly diluted substrate (50 μl/well), bioluminescence was immediately measured on a SpectraMax M5 plate reader (Molecular Devices, Sunnyvale, CA, USA) in luminescence mode. […] The calculated specific binding data were expressed as means ± standard error (SE; n = 3) and fitted to sigmoidal curves using SigmaPlot 10.0 software.

[2] = biological target: T2, human RXFP4 (Homo sapiens, UniProt Q8TDU9); test: as above
T2 construct: expressed in transfected cells; host or cells: HEK293T
T2 sequence (Q8TDU9 whole entry): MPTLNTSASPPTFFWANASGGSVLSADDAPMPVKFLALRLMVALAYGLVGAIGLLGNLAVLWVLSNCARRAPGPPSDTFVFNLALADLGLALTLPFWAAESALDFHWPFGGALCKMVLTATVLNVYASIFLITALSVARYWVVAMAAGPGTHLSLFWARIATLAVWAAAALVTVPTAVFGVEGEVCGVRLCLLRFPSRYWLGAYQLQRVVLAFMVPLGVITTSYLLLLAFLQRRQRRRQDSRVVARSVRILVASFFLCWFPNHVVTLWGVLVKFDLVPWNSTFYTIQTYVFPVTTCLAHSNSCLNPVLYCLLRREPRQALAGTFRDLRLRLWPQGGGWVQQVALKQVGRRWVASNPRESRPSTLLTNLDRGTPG
Experimental: as §1, §2

[3] = biological target: T1, human RXFP3; test: Receptor activation assay, CRE-controlled NanoLuc reporter; format: cell-based
Text: (§3) HEK293T cells transiently cotransfected with a CRE-controlled NanoLuc reporter vector and the expression construct of human RXFP3 or human RXFP4 were used for activation assays. The measured bioluminescence data are expressed as means ± SE (n = 3) and fitted to sigmoidal or linear curves using SigmaPlot 10.0.
(§4) Briefly, HEK293T cells were transiently cotransfected with the NanoLuc reporter vector pNL1.2/CRE and the expression construct of human RXFP3 or human RXFP4. On the next day, transfected cells were trypsinised, seeded into 96-well plates, and continuously cultured for 24–36 h to ~90% confluence. To initiate activation assays, medium was removed and activation solution (serum-free DMEM medium plus 1% bovine serum albumin) containing 1.0 μM of forskolin and various concentrations of peptide was added (100 μl/well). After continuous culturing at 37 °C for 4 h, activation solution was removed and cells were lysed with lysis solution (100 μl/well, Promega). Cell lysates were then transferred to a white opaque 96-well plate (50 μl/well), mixed with freshly diluted substrate (50 μl/well), and bioluminescence was immediately measured on a SpectraMax M5 plate reader (Molecular Devices) in luminescence mode. The measured data were expressed as means ± SE (n = 3) and fitted to sigmoidal or linear curves using SigmaPlot 10.0 software.

[4] = biological target: T2, human RXFP4; test: as above; format: cell-based; settings: relative to R3/I5
Text: as §3, §4

| Structure (SMILES) | binding potency towards RXFP3, in words [1] | fold lower binding potency towards RXFP4 compared with R3/I5 ([2]; relative to R3/I5) [fold] | activation potency towards RXFP3, in words ([3]; CRE-NanoLuc reporter, human RXFP3, compared with R3/I5) | fold higher activation potency towards RXFP3 than towards RXFP4 ([3]; selectivity RXFP3 over RXFP4, from activation assays) [fold] | fold lower activation potency towards RXFP4 compared with R3/I5 [4] | binding potency towards RXFP4, in words ([2]; compared with R3/I5) | fold lower activation potency towards RXFP3 compared with R3/I5 ([3]; CRE-NanoLuc reporter, human RXFP3, relative to R3/I5) |
| --- | --- | --- | --- | --- | --- | --- | --- |
| CC[C@H](C)[C@@H]1NC(=O)[C@H](Cc2ccccc2)NC(=O)[C@H](CCC(=O)O)NC(=O)[C@H](CCCNC(=N)N)NC(=O)CNC(=O)[C@@H](NC(=O)[C@H](CC(C)C)NC(=O)[C@H](CCCNC(=N)N)NC(=O)[C@@H](NC(=O)CNC(=O)[C@H](Cc2ccc(O)cc2)NC(=O)[C@@H]2CCCN2C(=O)[C@H](C)NC(=O)[C@H](C)NC(=O)[C@H](CCCNC(=N)N)NC(=O)[C@@H]2CCC(=O)N2)C(C)C)CSSC[C@@H]2NC(=O)[C@@H](NC(=O)[C@H](CC(C)C)NC(=O)[C@@H](NC(=O)[C@H](CCC(N)=O)NC(=O)[C@H](CC(C)C)NC(=O)[C@H](CC(=O)O)NC(=O)[C@H](CCC(N)=O)NC(=O)[C@H](CCCNC(=N)N)NC(=O)[C@H](CO)NC(=O)[C@H](CCCNC(=N)N)NC(=O)[C@H](CCCNC(=N)N)NC(=O)[C@H](CO)NC(=O)[C@@H](N)CCCNC(=N)N)[C@@H](C)O)CSSC[C@H](NC(=O)CNC(=O)[C@H](CC(=O)O)NC(=O)[C@H]([C@@H](C)O)NC2=O)C(=O)N[C@@H](CO)C(=O)N[C@@H](CCSC)C(=O)N[C@@H]([C@@H](C)O)C(=O)N[C@@H](CC(=O)O)C(=O)N[C@@H](CC(C)C)C(=O)N[C@@H](CO)C(=O)N[C@@H](C)C(=O)N[C@@H](CC(C)C)C(=O)N[C@H](C(=O)O)CSSC[C@@H](C(=O)NCC(=O)N[C@@H](CO)C(=O)N[C@@H](CO)C(=O)N[C@@H](CCCNC(=N)N)C(=O)N[C@@H](Cc2c[nH]c3ccccc23)C(=O)O)NC(=O)[C@H]([C@@H](C)O)NC(=O)[C@H](Cc2ccccc2)NC(=O)[C@H]([C@@H](C)CC)NC(=O)[C@H](C(C)C)NC(=O)[C@H](C)NC(=O)[C@H](CCCNC(=N)N)NC1=O [[G(B24)S]R3/I5] | retained full activation and binding potencies | 2 | retained full activation and binding potencies | 20 | 20 fold |  |  |
| CC[C@H](C)[C@@H]1NC(=O)[C@H](Cc2ccccc2)NC(=O)[C@H](CCC(=O)O)NC(=O)[C@H](CCCNC(=N)N)NC(=O)CNC(=O)[C@@H](NC(=O)[C@H](CC(C)C)NC(=O)[C@H](CCCNC(=N)N)NC(=O)[C@@H](NC(=O)CNC(=O)[C@H](Cc2ccc(O)cc2)NC(=O)[C@@H]2CCCN2C(=O)[C@H](C)NC(=O)[C@H](C)NC(=O)[C@H](CCCNC(=N)N)NC(=O)[C@@H]2CCC(=O)N2)C(C)C)CSSC[C@@H]2NC(=O)[C@@H](NC(=O)[C@H](CC(C)C)NC(=O)[C@@H](NC(=O)[C@H](CCC(N)=O)NC(=O)[C@H](CC(C)C)NC(=O)[C@H](CC(=O)O)NC(=O)[C@H](CCC(N)=O)NC(=O)[C@H](CCCNC(=N)N)NC(=O)[C@H](CO)NC(=O)[C@H](CCCNC(=N)N)NC(=O)[C@H](CCCNC(=N)N)NC(=O)[C@H](CO)NC(=O)[C@@H](N)CCCNC(=N)N)[C@@H](C)O)CSSC[C@H](NC(=O)CNC(=O)[C@H](CC(=O)O)NC(=O)[C@H]([C@@H](C)O)NC2=O)C(=O)N[C@@H](CO)C(=O)N[C@@H](CCSC)C(=O)N[C@@H]([C@@H](C)O)C(=O)N[C@@H](CC(=O)O)C(=O)N[C@@H](CC(C)C)C(=O)N[C@@H](CO)C(=O)N[C@@H](C)C(=O)N[C@@H](CC(C)C)C(=O)N[C@H](C(=O)O)CSSC[C@@H](C(=O)N[C@@H](CCCNC(=N)N)C(=O)N[C@@H](Cc2c[nH]c3ccccc23)C(=O)O)NC(=O)[C@H]([C@@H](C)O)NC(=O)[C@H](Cc2ccccc2)NC(=O)[C@H]([C@@H](C)CC)NC(=O)[C@H](C(C)C)NC(=O)[C@H](C)NC(=O)[C@H](CCCNC(=N)N)NC1=O [[∆B23-25]R3/I5] | almost normal binding potency |  |  |  | ~ 30 fold | almost normal binding potency | ~ 30 fold |

Reference: publication PMC5468247, “Development of a selective agonist for relaxin family peptide receptor 3” (Scientific Reports, 2017)
